Test results taken from patent US12679878B2, “CRF2 receptor agonists and their use in therapy” (SANOFI, priority 2020, dated 2026).
Where two headings read alike, the source gives them in different places. Starred links: 1 amine or outer side, 2 acyl side, 3 side chain; linkers in the order of their positions; H or OH if unused. Non-standard residues stand in square brackets, D forms with d. Residues, ends and D or L forms follow the SMILES beside them. Groups on a side chain read outwards from the residue. *: point of attachment. C20 diacid = O=C(O)CCCCCCCCCCCCCCCCCCC(=O)*; C18 diacid = O=C(O)CCCCCCCCCCCCCCCCC(=O)*; γGlu = O=C(O)[C@H](CCC(=O)[*:2])N[*:1]; Palmitoyl = CCCCCCCCCCCCCCCC(=O)*; AEEA = NCCOCCOCC(=O)O; Aib = CC(C)(N)C(=O)O

How the values were obtained:
[1] = Physical stability, Thioflavin T fibrillation assay (Example 14); assay type: physicochemical; details: 3 mg/ml, 37° C. shaking
Method: The physical stability of the compounds was assessed using a Thioflavin T (ThT) assay.
The time course for fibril formation often follows the characteristic shape of a sigmoidal curve and can be separated into three regions: a lag phase, a fast growth phase, and a plateau phase. The typical fibril formation process starts with the lag phase in which the amount of partially folded peptide turned into fibrils is not significant enough to be detected. The lag-time corresponds to the time the critical mass of the nucleus is built. Afterwards, a drastic elongation phase follows and fibril concentration increases rapidly. Therefore, by measuring the increase in fluorescence intensity attributable to ThT as well as the lag time of the increase, the fibrillation tendency of a peptide can be determined, thereby providing a measure of the physical stability of the peptide.
In the present study, test compounds were diluted in buffer to a final concentration of 3 mg/ml.
The fibrillation tendencies of the peptides were determined under stress using a Fluoroskan Ascent FL or Fluoroskan Ascent fluorometer. […] Plates were sealed with Scotch Tape (Quiagen). Samples were stressed by continuous cycles of 10 s shaking at 960 rpm and 50 s rest period at 37° C. Fibril development was monitored by measuring fluorescence intensity every 20 minutes. For each sample, eight replicates were tested.

human CRF2α receptor = molecular target: T1, human CRF2α receptor (Homo sapiens, UniProt Q13324); experiment: cAMP agonism at human CRF2 α receptor in TeloHEAC cells (Example 7); assay type: cell-based; details: cAMP HTRF, TeloHEAC cells stably expressing human CRF2 α
T1 construct: expressed in transfected cells; host or cells: TeloHEAC
T1 sequence (Q13324 1-411): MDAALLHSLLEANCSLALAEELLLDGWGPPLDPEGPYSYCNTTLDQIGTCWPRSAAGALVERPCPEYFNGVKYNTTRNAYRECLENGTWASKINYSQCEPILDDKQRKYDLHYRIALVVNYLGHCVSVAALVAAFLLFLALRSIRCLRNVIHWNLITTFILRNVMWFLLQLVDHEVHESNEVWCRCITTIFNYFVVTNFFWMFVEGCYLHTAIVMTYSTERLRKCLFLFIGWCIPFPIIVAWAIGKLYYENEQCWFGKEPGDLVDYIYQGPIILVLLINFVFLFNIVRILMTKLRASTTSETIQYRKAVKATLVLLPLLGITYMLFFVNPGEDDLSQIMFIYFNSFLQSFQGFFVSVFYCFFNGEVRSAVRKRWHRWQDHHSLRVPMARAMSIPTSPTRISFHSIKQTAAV
In short: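 Percent activation was referenced to 1000 nM UCN2 (100%), and EC50 values taken as concentrations giving half of maximal response. The read-out was a homogeneous time-resolved fluorescence cAMP kit, fluorescence ratio 665/620 nm. Thawed cells (2000/well) saw compound for 30 min at RT in buffer with 2 mM IBMX and 0%/0.1% HSA.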

[2] = Solubility in buffer systems by UPLC-UV (Example 13); assay type: physicochemical
In short: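 The supernatant was diluted 1:10 and quantified by UPLC-UV peak area against a reference standard curve, correcting for sequence-based extinction coefficients.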

CRF1R receptor = molecular target: T2, CRF1R receptor (Homo sapiens, UniProt P34998); experiment: cAMP activity at anti-target CRF1R, CRF1R-overexpression CHO cell line (Example 9); assay type: cell-based; details: CRF1R-overexpression CHO cell line; for Emax: read-out: Emax (%); for EC50: 0% HSA
T2 construct: host or cells: CHO-K1 clone 2
T2 sequence (P34998 24-415): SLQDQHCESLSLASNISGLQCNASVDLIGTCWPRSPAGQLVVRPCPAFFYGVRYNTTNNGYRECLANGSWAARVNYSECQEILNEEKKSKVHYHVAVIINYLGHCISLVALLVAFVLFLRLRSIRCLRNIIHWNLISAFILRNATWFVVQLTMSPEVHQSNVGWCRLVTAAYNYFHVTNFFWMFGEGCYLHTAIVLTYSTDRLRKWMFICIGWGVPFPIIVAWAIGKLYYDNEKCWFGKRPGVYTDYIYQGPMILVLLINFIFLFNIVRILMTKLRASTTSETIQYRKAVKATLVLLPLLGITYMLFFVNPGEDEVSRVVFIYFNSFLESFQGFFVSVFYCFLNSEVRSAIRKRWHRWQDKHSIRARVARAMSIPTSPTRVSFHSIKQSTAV
In short: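 cAMP accumulation was read by HTRF after 30 min at room temperature of compound treatment. Cells were cryopreserved CHO cells overexpressing CRF1R, plated at 2000/well in IBMX (2 mM)-containing HBSS/HEPES buffer with 0 or 0.1% HSA. Activity was normalized to 1000 nM UCN2 as 100%.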

rat CRF2R α receptor = experiment: cAMP agonism at rat CRF2R α receptor in A7R5 rat aortic smooth muscle cells (Example 8); assay type: cell-based; details: cAMP HTRF, A7R5 rat aortic smooth muscle cell line, 0% HSA
In short: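 Thawed cryopreserved A7R5 cells in HBSS/20 mM HEPES (0 or 0.1% HSA) with 2 mM IBMX, 2000 cells/well, were exposed to compound for 30 min at room temperature. cAMP was read by HTRF (665/620 nm ratio) after 1 h with lysis reagents. Activity was normalised to 1000 nM urocortin 2 as 100%, and EC50 was taken as the concentration giving 50% of maximal activation.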

[3] = Buffer B: 100 mM acetate buffer, pH 4.5, 2.7 mg/ml m-cresol
[4] = 0% HSA, read-out: EC50 [nM], 0% HSA
[5] = pH 4.5, Solubility in Buffer B [mg/ml]
[6] = Buffer A: 100 mM acetate buffer, pH 4.5

Increase in FI (fluorescence intensity) [1, 3]	Lag time [1, 3] [h]	EC50 (human CRF2α receptor; [4]) [nM]	EC50 (human CRF2α receptor; 0.1% HSA, read-out: EC50 [nM], 0.1% HSA) [nM]	solubility at 1 h [2, 5] [mg/mL]	Emax (CRF1R receptor) [%]	Increase in FI (fluorescence intensity) [1, 6]	Lag time [1, 6] [h]	solubility at 1 h ([2]; pH 7.4, Solubility in Buffer C [mg/ml]) [mg/mL]	EC50 (rat CRF2R α receptor) [nM]	EC50 (CRF1R receptor) [nM]	Compound
No	>45	0.02	0.03	> 8.9	58.6						CCCCCCCCCCCCCCCC(=O)N[C@@H](CCC(=O)NCCCC[C@H](NC(=O)[C@H](CC(C)C)NC(=O)[C@H](CCCCN)NC(=O)[C@@H](NC(=O)[C@@H]1CCCN1C(=O)[C@H](NC(=O)[C@H](CC(=O)O)NC(=O)[C@H](CC(C)C)NC(=O)[C@H](CO)NC(=O)[C@H](CC(C)C)NC(=O)[C@@H](NC(=O)[C@@H](N)[C@@H](C)CC)C(C)C)C(C)C)[C@@H](C)O)C(=O)N[C@@H](CCC(N)=O)C(=O)N[C@@H](CCCCN)C(=O)N[C@@H](CC(C)C)C(=O)N[C@@H](CC(C)C)C(=O)N[C@@H](CCCCN)C(=O)N[C@@H](CCC(N)=O)C(=O)N[C@@H](CCC(=O)O)C(=O)N[C@@H](CCCNC(=N)N)C(=O)N[C@@H](CCC(N)=O)C(=O)N[C@@H](CCCNC(=N)N)C(=O)N[C@@H](CCCCN)C(=O)N[C@@H](CCC(=O)O)C(=O)N[C@@H](CCCNC(=N)N)C(=O)N[C@@H](CCC(=O)O)C(=O)N[C@@H](CCC(N)=O)C(=O)N[C@@H](C)C(=O)N[C@@H](CCC(=O)O)C(=O)N[C@@H](CCCCN)C(=O)N[C@@H](CC(N)=O)C(=O)N[C@@H](C)C(=O)N[C@@H](CCCNC(=N)N)C(=O)N[C@H](C(=O)N[C@@H](CC(C)C)C(=O)N[C@@H](C)C(=O)N[C@@H](CCCNC(=N)N)C(=O)N[C@H](C(N)=O)C(C)C)[C@@H](C)CC)C(=O)O [compound 7] (H-IVLSLD[dV]PTKLK([γGlu-Palmitoyl])QKLLKQERQRKEREQAEKNARILARV-NH2)
No	>45	0.48		> 11.5	4.84	No	>45	> 11	1.35	> 1000	CC[C@H](C)[C@H](NC(=O)[C@H](CCC(N)=O)NC(=O)[C@H](CCCCNC(=O)COCCOCCNC(=O)COCCOCCNC(=O)CC[C@H](NC(=O)CCCCCCCCCCCCCCCCCCC(=O)O)C(=O)O)NC(=O)[C@@H](NC(=O)[C@H](CCCCN)NC(=O)[C@@H](NC(=O)[C@@H]1CCCN1C(=O)[C@@H](NC(=O)[C@H](CC(=O)O)NC(=O)[C@H](CC(C)C)NC(=O)[C@H](CO)NC(=O)[C@H](CC(C)C)NC(=O)[C@@H](NC(=O)[C@@H](N)Cc1ccccc1)[C@@H](C)O)C(C)C)[C@@H](C)O)[C@@H](C)CC)C(=O)N[C@@H](CC(C)C)C(=O)N[C@@H](CC(C)C)C(=O)N[C@@H](CCCCN)C(=O)N[C@@H](CCC(N)=O)C(=O)N[C@@H](CCC(N)=O)C(=O)N[C@@H](CCCCN)C(=O)N[C@@H](CCC(N)=O)C(=O)N[C@@H](CCCCN)C(=O)N[C@@H](CCCCN)C(=O)N[C@@H](CCC(=O)O)C(=O)N[C@@H](CCCNC(=N)N)C(=O)N[C@@H](CCC(N)=O)C(=O)N[C@@H](CCC(N)=O)C(=O)N[C@@H](C)C(=O)N[C@@H](CCC(=O)O)C(=O)N[C@@H](CCCCN)C(=O)N[C@@H](CC(N)=O)C(=O)N[C@@H](CCCCN)C(=O)N[C@@H](CCC(N)=O)C(=O)N[C@@H](CC(C)C)C(=O)N[C@@H](CC(C)C)C(=O)N[C@@H](CCC(=O)O)C(=O)N[C@@H](CCCNC(=N)N)C(=O)N[C@H](C(N)=O)C(C)C [compound 60] (H-FTLSLDVPTKIK([AEEA-AEEA-γGlu-C20 diacid])QILLKQQKQKKERQQAEKNKQLLERV-NH2)
Yes	34.7 to 41.0	0.65		> 10.7	2.58				4.31	> 1000	CC[C@H](C)[C@H](N)C(=O)N[C@H](C(=O)N[C@@H](CC(C)C)C(=O)N[C@@H](CO)C(=O)N[C@@H](CC(C)C)C(=O)N[C@@H](CC(=O)O)C(=O)N[C@H](C(=O)N1CCC[C@H]1C(=O)N[C@H](C(=O)N[C@@H](CCCCN)C(=O)N[C@@H](CC(C)C)C(=O)N[C@@H](CCCCNC(=O)COCCOCCNC(=O)COCCOCCNC(=O)CC[C@H](NC(=O)CCCCCCCCCCCCCCCCC(=O)O)C(=O)O)C(=O)N[C@@H](CCC(N)=O)C(=O)N[C@H](C(=O)N[C@@H](CC(C)C)C(=O)N[C@@H](CC(C)C)C(=O)N[C@@H](CCC(=O)O)C(=O)N[C@@H](CCC(N)=O)C(=O)N[C@@H](CCC(=O)O)C(=O)N[C@@H](CCCNC(=N)N)C(=O)N[C@@H](CCC(N)=O)C(=O)N[C@@H](CCCCN)C(=O)N[C@@H](CCCCN)C(=O)N[C@@H](CCC(N)=O)C(=O)N[C@@H](CCCNC(=N)N)C(=O)N[C@@H](CCC(N)=O)C(=O)N[C@@H](CCC(N)=O)C(=O)N[C@@H](C)C(=O)N[C@@H](CCC(=O)O)C(=O)N[C@H](C(=O)N[C@@H](CC(N)=O)C(=O)NC(C)(C)C(=O)N[C@@H](CCC(N)=O)C(=O)N[C@H](C(=O)N[C@@H](CC(C)C)C(=O)N[C@@H](C)C(=O)N[C@@H](CCC(N)=O)C(=O)N[C@H](C(N)=O)C(C)C)[C@@H](C)CC)[C@@H](C)O)[C@@H](C)CC)[C@@H](C)CC)C(C)C)C(C)C [compound 72] (H-IVLSLDVPIKLK([AEEA-AEEA-γGlu-C18 diacid])QILLEQERQKKQRQQAETN[Aib]QILAQV-NH2; N-terminus assumed)
